{"source": "patent US10028956B2", "about": "“Methods of treating various cancers using an AXL/cMET inhibitor in combination with other agents” (Ignyta, Inc., priority 2013, dated 2018)", "key": {"[1]": {"test_system": "298 kinases", "experiment": "Kinome selectivity against 298 kinases", "type": "biochemical"}, "[2]": {"experiment": "PK in rat", "settings": "in vivo"}, "[3]": {"experiment": "PK in monkey", "settings": "in vivo"}, "[4]": {"molecular_target": "T1, c-Met (Homo sapiens, UniProt P08581)", "T1 sequence (P08581 25-1390)": "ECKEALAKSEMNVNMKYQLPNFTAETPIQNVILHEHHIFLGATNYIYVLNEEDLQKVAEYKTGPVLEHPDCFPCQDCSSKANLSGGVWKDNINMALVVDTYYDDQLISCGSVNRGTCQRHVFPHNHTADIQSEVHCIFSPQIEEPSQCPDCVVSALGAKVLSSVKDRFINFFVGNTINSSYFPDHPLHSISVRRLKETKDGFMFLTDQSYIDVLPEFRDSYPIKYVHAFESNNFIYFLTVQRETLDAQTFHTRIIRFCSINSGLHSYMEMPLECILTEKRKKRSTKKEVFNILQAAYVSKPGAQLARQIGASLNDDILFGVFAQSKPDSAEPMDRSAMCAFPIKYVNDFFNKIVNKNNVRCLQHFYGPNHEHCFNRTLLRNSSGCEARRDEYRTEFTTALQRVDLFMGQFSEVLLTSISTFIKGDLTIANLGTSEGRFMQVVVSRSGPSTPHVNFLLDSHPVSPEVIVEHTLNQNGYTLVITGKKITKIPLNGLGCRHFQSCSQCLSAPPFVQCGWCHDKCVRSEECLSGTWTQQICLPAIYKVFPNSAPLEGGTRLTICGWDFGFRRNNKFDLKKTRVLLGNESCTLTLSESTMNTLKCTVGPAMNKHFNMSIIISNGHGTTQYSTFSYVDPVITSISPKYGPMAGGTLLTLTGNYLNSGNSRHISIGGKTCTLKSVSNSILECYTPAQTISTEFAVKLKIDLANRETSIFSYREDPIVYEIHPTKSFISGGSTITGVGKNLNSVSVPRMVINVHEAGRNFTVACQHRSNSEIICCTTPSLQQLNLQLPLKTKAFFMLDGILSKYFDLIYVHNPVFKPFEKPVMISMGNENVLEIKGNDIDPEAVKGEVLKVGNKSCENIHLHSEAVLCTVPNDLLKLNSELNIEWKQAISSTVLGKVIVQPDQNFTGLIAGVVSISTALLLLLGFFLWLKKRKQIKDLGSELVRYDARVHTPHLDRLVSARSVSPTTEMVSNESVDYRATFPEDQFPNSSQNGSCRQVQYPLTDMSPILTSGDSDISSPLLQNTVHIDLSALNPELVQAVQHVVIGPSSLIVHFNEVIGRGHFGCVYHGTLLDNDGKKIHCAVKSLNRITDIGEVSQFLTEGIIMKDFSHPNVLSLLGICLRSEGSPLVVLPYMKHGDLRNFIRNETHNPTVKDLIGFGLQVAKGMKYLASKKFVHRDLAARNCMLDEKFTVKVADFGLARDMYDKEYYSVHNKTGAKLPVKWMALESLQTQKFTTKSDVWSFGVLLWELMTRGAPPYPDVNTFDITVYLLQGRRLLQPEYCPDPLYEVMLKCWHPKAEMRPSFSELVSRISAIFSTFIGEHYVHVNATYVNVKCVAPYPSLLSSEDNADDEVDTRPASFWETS", "experiment": "Dissociation from c-Met, LanthaScreen Eu-kinase binding assay", "experimental": "Assay buffer was prepared as for association, and used for all dilutions. A 5-μL aliquot of 80 nM LanthaScreen Eu-anti-GST antibody:20 nM GST-tagged enzyme mix was added to the Greiner low volume white 384-well plate, with antibody only added to control wells. Compound (100 nL) in DMSO was added by pintool at 2000-fold over the final assay concentration. DMSO was added to no inhibitor control wells. After a one-hour incubation at ambient temperature to allow formation of the enzyme-inhibitor complex, 2 μL of the reaction mix was transferred to a 384 Optiplate (PerkinElmer) and 78 μL of kinase tracer 236 was added. The final tracer concentration was 100 nM for AXL and 200 nM for c-Met. Readings were immediately initiated and total of 60 time points were taken at 2-min intervals, at 25° C. or 37° C. The background subtracted ratio was normalized to the no inhibitor control to calculate the % tracer bound, which was plotted with respect to time. The data was fitted to the one phase association model in GraphPad Prism (La Jolla Calif.)."}, "[5]": {"test_system": "CTG-0157 primary NSCLC human TumorGraft", "experiment": "NSCLC TumorGraft model CTG-0157", "type": "in vivo, mice", "settings": "CTG-0157, 14 days", "experimental": "Methods (for the experiments shown in FIGS. 10 and 11) • Female immunocompromised nu/nu mice (Harlan) between 6-9 weeks of age were housed on irradiated papertwist-enriched ⅛″ corncob bedding (Sheperd) in individual HEPA ventilated cages (Innocage® IVC, Innovive USA) on a 12-hour light-dark cycle at 68-74° F. (20-23° C.) and 30-70% humidity. Animals were fed water ad libitum (reverse osmosis, 2 ppm Cl2) and an irradiated Test rodent diet (Teklad 2919) consisting of 19% protein, 9% fat, and 4% fiber. • Tumor Models: Champions TumorGraft models of NSCLC are owned by Champions Oncology. In this study, animals were implanted unilaterally on the right flank with tumor fragments harvested from host animals. […] Erlotinib (manufacturer: OSI Pharmaceuticals; National Drug Code: 50242-062-01; Lot #: US0002) was formulated using 100% PEG-400 as the vehicle according to manufacturer's specifications.\nEfficacy measurements: Beginning Day 0, tumor dimensions were measured twice weekly by digital caliper (Fowler Ultra-Cal IV) and data including individual and mean estimated tumor volumes (Mean TV±SEM) were recorded for each group; tumor volume was calculated using the formula TV=width^2×length×0.52. At study completion, percent tumor growth inhibition (% TGI) values were calculated and reported for each treatment group (T) versus control (C) using initial (i) and final (f) tumor measurements by the formula: % TGI=1−Tf−Ti/Cf−C; single agent or combination therapies resulting in a TGI>50 at study completion are considered active in the tested model at the evaluated treatment regimen according to NCI guidelines. […] If the PR persisted until study completion, percent tumor regression (% TR) was determined using the formula: % TR=1−Tf/Ti×100; a mean value was calculated if multiple PR mice occurred in one group. […] Statistical differences in tumor volume were determined using a two-tailed One-Way Analysis of Variance (ANOVA) followed by the Dunett's multiple comparisons test comparing treated groups with control and combinations with standard agent alone when possible. […]"}, "[6]": {"molecular_target": "T1, c-Met", "experiment": "Cellular c-Met inhibition in GTL-16 cells", "type": "cell-based", "parameters": "endogenous in cells; host or cells: GTL-16 human gastric carcinoma cells"}, "[7]": {"molecular_target": "T2, AXL (Homo sapiens, UniProt P30530)", "T2 sequence (P30530 26-894)": "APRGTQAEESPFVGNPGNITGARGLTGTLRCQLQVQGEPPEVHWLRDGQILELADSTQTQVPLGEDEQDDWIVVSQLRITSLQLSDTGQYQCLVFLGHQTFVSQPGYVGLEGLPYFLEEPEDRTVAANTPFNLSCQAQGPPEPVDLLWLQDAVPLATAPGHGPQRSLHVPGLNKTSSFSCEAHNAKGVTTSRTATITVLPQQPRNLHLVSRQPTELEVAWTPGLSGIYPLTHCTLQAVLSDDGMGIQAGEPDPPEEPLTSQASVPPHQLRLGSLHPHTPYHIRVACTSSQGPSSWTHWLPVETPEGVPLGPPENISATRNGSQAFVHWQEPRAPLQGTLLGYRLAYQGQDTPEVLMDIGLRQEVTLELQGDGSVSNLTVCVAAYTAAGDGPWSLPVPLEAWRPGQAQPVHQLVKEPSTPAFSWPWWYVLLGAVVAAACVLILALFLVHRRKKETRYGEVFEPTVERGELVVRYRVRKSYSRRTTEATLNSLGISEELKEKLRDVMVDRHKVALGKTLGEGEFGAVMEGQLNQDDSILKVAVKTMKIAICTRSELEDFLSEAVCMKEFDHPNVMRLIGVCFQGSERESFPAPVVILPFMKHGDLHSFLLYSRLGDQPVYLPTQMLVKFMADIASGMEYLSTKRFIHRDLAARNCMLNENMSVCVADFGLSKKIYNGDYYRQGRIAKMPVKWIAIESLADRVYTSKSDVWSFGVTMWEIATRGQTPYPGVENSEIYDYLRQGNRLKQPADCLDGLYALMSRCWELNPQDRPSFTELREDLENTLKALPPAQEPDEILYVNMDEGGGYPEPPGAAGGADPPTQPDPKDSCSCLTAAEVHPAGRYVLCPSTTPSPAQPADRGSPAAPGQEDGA", "experiment": "Cellular potency in NCI-H1299 human NSCL cells", "type": "cell-based", "parameters": "endogenous in cells; host or cells: NCI-H1299 human NSCLC cells (culture; subcutaneous xenograft in mice)"}, "[8]": {"settings": "intravenous, 1 mg/kg i.v. and 3 mg/kg p.o."}, "[9]": {"settings": "intravenous, 0.5 mg/kg i.v. and p.o."}}, "note": "Marks after values point to notes of the source that are not given here."}
{"compound": "COc1cc2nccc(Oc3ccc(NC(=O)c4cn(C(C)C)c(=O)n(-c5ccc(F)cc5)c4=O)cc3F)c2cc1OC", "note": "[CEP-40783, 3-(4-Fluorophenyl)-1-isopropyl-2,4-dioxo-1,2,3,4-tetrahydropyrimidine-5-carboxylic acid [4-(6,7-dimethoxyquinolin-4-yloxy)-3-fluorophenyl]-amide]", "values": [{"measurement": "S90 (fraction of kinases showing >90% inhibition at 1 μM)", "setting": "[1]", "value": 0.04}, {"measurement": "Cmax", "setting": "[2]; 1 mg/kg i.v. and 3 mg/kg p.o.", "value": 0.593, "unit": "µg/mL"}, {"measurement": "Vd", "setting": "[2]; [8]", "value": 2.6, "unit": "L/kg"}, {"measurement": "clearance", "setting": "[2]; [8]", "value": 0.084, "unit": "L/h/kg"}, {"measurement": "half-life", "setting": "[2]; iv, 1 mg/kg i.v., read-out: t1/2 i.v. (converted)", "value": 21.5, "unit": "h"}, {"measurement": "bioavailability", "setting": "[2]; oral, 1 mg/kg i.v. and 3 mg/kg p.o.", "value": 57, "unit": "%"}, {"measurement": "AUC(0-t)", "setting": "[2]; po, 3 mg/kg p.o.", "value": 16.3, "unit": "µg·h/mL"}, {"measurement": "Cmax", "setting": "[3]; 0.5 mg/kg i.v. and p.o.", "value": 0.26, "unit": "µg/mL"}, {"measurement": "Vd", "setting": "[3]; [9]", "value": 1.2, "unit": "L/kg"}, {"measurement": "clearance", "setting": "[3]; [9]", "value": 0.132, "unit": "L/h/kg"}, {"measurement": "half-life", "setting": "[3]; iv, 0.5 mg/kg i.v., read-out: t1/2 i.v. (converted)", "value": 14.5, "unit": "h"}, {"measurement": "bioavailability", "setting": "[3]; oral, 0.5 mg/kg i.v. and p.o.", "value": 77, "unit": "%"}, {"measurement": "AUC(0-t)", "setting": "[3]; po, 0.5 mg/kg p.o.", "value": 3.03, "unit": "µg·h/mL"}, {"measurement": "off-rate from c-Met", "setting": "[4]; 25° C.", "value": "very slow"}, {"measurement": "dissociation rate from c-Met at higher temperature", "setting": "[4]; 37° C. versus 25° C.", "value": "slightly enhanced"}, {"measurement": "% Tumor Growth Inhibition", "setting": "[5]; 10 mg/kg po/qd", "value": 3, "unit": "%"}, {"measurement": "% Tumor Growth Inhibition", "setting": "[5]; 30 mg/kg po/qd", "value": 85, "unit": "%*†"}, {"measurement": "IC50", "setting": "[6]", "value": 6, "unit": "nM"}, {"measurement": "IC50", "setting": "[7]", "value": 0.1, "unit": "nM"}]}
